The target in one assay is T1, human NK2 receptor (Homo sapiens, UniProt P21452).
T1 sequence (P21452 1-398): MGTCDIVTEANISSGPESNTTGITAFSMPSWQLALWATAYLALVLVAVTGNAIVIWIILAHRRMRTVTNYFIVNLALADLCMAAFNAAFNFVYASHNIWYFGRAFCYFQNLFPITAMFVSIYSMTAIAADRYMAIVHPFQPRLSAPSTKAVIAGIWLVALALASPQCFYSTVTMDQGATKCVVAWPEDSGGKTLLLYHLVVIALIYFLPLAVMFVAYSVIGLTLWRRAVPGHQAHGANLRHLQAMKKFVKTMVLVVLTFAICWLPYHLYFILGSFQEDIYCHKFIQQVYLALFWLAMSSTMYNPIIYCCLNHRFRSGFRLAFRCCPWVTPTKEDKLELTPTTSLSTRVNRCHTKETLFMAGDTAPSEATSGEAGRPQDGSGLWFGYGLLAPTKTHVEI
The assay is described as follows: Neurokinin A (NKA) Receptor-binding Assay (Test A), 3H-NKA binding to MEL cell membranes (MELM).

A further assay deals with T2, guinea pig trachea (Cavia porcellus, UniProt Q64077).
T2 sequence (Q64077 1-402): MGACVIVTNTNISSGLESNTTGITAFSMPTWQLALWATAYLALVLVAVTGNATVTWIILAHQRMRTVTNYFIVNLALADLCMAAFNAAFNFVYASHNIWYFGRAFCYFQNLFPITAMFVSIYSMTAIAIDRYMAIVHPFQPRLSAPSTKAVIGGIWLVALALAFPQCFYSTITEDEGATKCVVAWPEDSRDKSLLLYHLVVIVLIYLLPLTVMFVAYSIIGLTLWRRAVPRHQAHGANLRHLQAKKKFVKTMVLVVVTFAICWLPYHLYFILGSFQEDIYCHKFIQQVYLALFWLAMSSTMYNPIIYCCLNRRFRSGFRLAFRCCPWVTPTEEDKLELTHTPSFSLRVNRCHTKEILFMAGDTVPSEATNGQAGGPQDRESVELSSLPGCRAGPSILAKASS
Nature of the assay: Guinea Pig Trachea Assay (Test B), antagonism of NKA or [β-ala^8]-NKA(4-10). The assay is classed as cell-based. Conditions: for Kb: guinea pig trachea, apparent dissociation constant, -log molar KB.

For another assay, the system named is NK2 receptor. The assay is described as follows: Guinea Pig Labored Abdominal Breathing (Dyspnea) Assay (Test C), [β-ala^8]-NKA(4-10) aerosol. Format: in vivo. Particulars: 5 μmol/kg p.o., 120 min prior. The procedure: Guinea Pig Labored Abdominal Breathing (Dyspnea) Assay (Test C)
Using the clear plastic chamber described previously by Snyder et al. to secure guinea pigs for a head-only aerosol exposure to bronchoconstrictor agonists, agonist is administered by aerosol to six conscious guinea pigs simultaneously during each maneuver. The tachykinin NK2-selective agonist, [β-ala^8 ]-NKA(4-10), 3×10^-5 M, is aerosolized from a Devilhiss Model 25 ultrasonic nebulizer into an air stream entering the chamber at a rate of 2 L/minute.
Guinea pigs (275-400 g) are fasted for approximately 16 hours prior to experimentation. Compounds to be evaluated for blockade of effects of [β-ala^8 ]-NKA(4-10) or their vehicle (10% PEG400 in saline) are administered p.o. or i.v. at various times before aerosol agonist challenge. All animals are pretreated with atropine (10 mg/kg, i.p., 45 minutes pretreatment) indomethacin (10 mg/kg, i.p., 30 minutes pretreatment), propranolol (5 mg/kg, i.p., 30 minutes pretreatment), and thiorphan (1 mg/ml aerosol for 5 minutes, 15 minutes pretreatment).
Aerosol challenge with the agonist produces an initial increase in respiratory rate followed by a decrease with early signs of minor involvement of the abdominal muscles. The respiratory rate decreases further and the breathing becomes more labored with greater involvement of the abdominal muscles as exposure continues. The distinctly recognizable end point is the point where the breathing pattern of the guinea pig is consistently slow, deep, and deliberate, showing marked involvement of the abdominal muscles. Time, in seconds, from the onset of aerosol challenge to this end point is determined for each animal by using a stopwatch. […] Antagonists result in an increase in the time to reach the end point. Animals receive the aerosol administration of agonist for a maximum time of 780 seconds.
Differences between drug treated groups and corresponding vehicle treated control groups are compared using Student's t-test for unpaired observations.

The target in assay [1] is NKA receptor from rat duodenum membranes. Particulars: Edmonds-Alt (1993), cited from earlier work; for Ki: rat duodenum membranes, read-out: inhibition constant (Ki), [125I]-NKA binding.
The subject of a further assay is neurokinin receptors. Conditions: EPA 559538; cited from earlier work.
[2] abbreviates: read-out: pKB (Test B) (converted).

“And” between values parts separate entries of the source, which are not always exact repeats. Identical values can stand only once. Counter-ions that a name gives are not always drawn. Like-named read-outs stand apart in the source and are kept apart here.

Procedure for guinea pig trachea: In the test described below either NKA or [β-ala^8 ]-NKA(4-10) is used as an agonist. The chosen agonist is referred to as AG throughout the description.
Male guinea pigs are killed by a sharp blow to the back of the head. The trachea are removed, trimmed of excess tissue and divided into two segments. Each segment is suspended as a ring between stainless steel stirrups in water-jacketed (37.5° C.) tissue baths containing a physiological salt solution of the following composition (mM): NaCl, 119; KCl 4.6; CaCl2, 1.8; MgCl2, 0.5; NaH2 PO4, 1; NaHCO3, 25; glucose, 11; thiorphan, 0.001; and indomethacin, 0.005; gassed continuously with 95% O2 -%5 CO2. Initial tension placed on each tissue is 1 g, which is maintained throughout a 0.5 to 1.5 hour equilibration period before addition of other drugs. Contractile responses are measured on a Grass polygraph via Grass FT-03 force transducers.
Tissues are challenged repetitively with a single concentration of AG (10 nM) with intervening 30 min periods with washing to allow the tension to return to baseline levels. The magnitude of the contractions to AG reaches a constant level after two challenges, and each Compound is tested for inhibition of responses to AG by addition to the tissue bath 15 minute before the third or subsequent exposure to the agonist. The contractile response to AG in the presence of Compound is compared to that obtained with the second AG challenge (in the absence of Compound). Percent inhibition is determined when a Compound produces a statistically significant (p<0.05) reduction of the contraction and is calculated using the second contractile response as 100%.
Potencies of selected Compounds are evaluated by calculating apparent dissociation constants (KB) for each concentration tested using the standard equation:
KB =[antagonist]/(dose ratio-1)
where dose ratio=antilog[(AG -log molar EC50 without Compound)-(AG -log molar EC50 with Compound)]. The KB values may be converted to the negative logarithms and expressed as -log molar KB (i.e. pKB). For this evaluation, complete concentration-response curves for AG are obtained in the absence and presence of Compound (30 min incubation period) using paired tracheal rings. The potency of AG is determined at 50% of its own maximum response level in each curve. The EC50 values are converted to the negative logarithms and expressed as -log molar EC50. Maximum contractile responses to AG are determined by expressing the maximum response to AG as a percentage of the contraction caused by carbachol (30 μM), added after the initial equilibration period. When a statistically significant (p<0.05) reduction of the maximum response to AG is produced by a compound, the percent inhibition is calculated relative to the percentage of carbachol contraction in the untreated, paired tissue used as 100%.
Procedure for human NK2 receptor: MEL C88 cells (A. Deisseroth et al., Cell (1978) 1-5, 55-63) were electroporated (M. Antoniou, Methods Molecular Biology (1991) 7, 421-434) with PvuI linearized pGSE1417/human NK2 receptor DNA. Directly after transfection, cells were diluted in culture medium to 10^4 and 10^5 cell per mL and 1 mL aliquots transferred to each well of a 24-well plate. G418 was added to a concentration of 1 mg/mL 24 hours after the transfection to select for stable transfectants. Individual clones were picked or pooled to generate populations seven to ten days after the addition of selective medium. […] Samples were taken 4 days post induction for mRNA and NKA binding analyses.
Membrane preparations (MELM) prepared from the MEL cells containing high-affinity NK2 receptors were prepared according to a published protocol (D. Aharony, et al., Neuropeptides (1992) 23, 121-130) with the following minor modifications: (1) Iodoacetamide (1 mM) was included in the homogenization buffer; (2) Homogenization was as published but for a shorter period of 10 seconds once and at a slower speed (setting 10); and (3) The equilibration step with KCl/EDTA was not performed.

The term Ki denotes a dissociation constant, usually derived from enzyme kinetics or from competition with a known ligand. For the compound `CSc1ccccc1C1CCN(CCC(CN(C)C(=O)c2ccccc2)c2ccc(Cl)c(Cl)c2)CC1.Cl` (centres unmarked) [Example 13, N-[2-(3,4-Dichlorophenyl)-4-[4-(2-methylthiophenyl)-piperidino]butyl]-N-methylbenzamide hydrochloride], the Ki on human NK2 receptor (read-out: Ki (Test A)) is 3 nM. For the same compound, the Kb at guinea pig trachea (setting [2]) was 2.51 nM. In the assay with NK2 receptor, the “number fully protected/total number tested (Test C)” value is on record as 3/6 and the “percent protection (Test C)” value was 78%.
Turning to `CN(C[C@@H](CCN1CCC(c2ccccn2)CC1)c1ccc(Cl)c(Cl)c1)C(=O)c1ccccc1.Cl` [Example 27, (S)-N-[2-(3,4-Dichlorophenyl)-4-[4-(2-pyridyl)piperidino]butyl]-N-methylbenzamide hydrochloride], on human NK2 receptor (read-out: Ki (Test A)), the inhibitory constant (Ki) stood at 2 nM. Also, at guinea pig trachea (setting [2]), the Kb is 12.6 nM. In the assay with NK2 receptor, the “number fully protected/total number tested (Test C)” value is listed as 2/6 and the “percent protection (Test C)” value amounted to 54%.
With `CSc1ccc(C2CCN(CC[C@H](CN(C)C(=O)c3ccccc3)c3ccc(Cl)c(Cl)c3)CC2)cc1.Cl` [Example 15, (S)-N-[2-(3,4-Dichlorophenyl)-4-[4-(4-methylthiophenyl)piperidino]butyl]-N-methylbenzamide hydrochloride], at human NK2 receptor (read-out: Ki (Test A)), the Ki was determined as 2 nM. Moreover, the Kb at guinea pig trachea (setting [2]) is 2 nM. Besides, in the assay on NK2 receptor, the “number fully protected/total number tested (Test C)” value is recorded as 6/6 and the “percent protection (Test C)” value is given as 100%.
As for `CN(C[C@@H](CCN1CCC(c2cccnc2)CC1)c1ccc(Cl)c(Cl)c1)C(=O)c1ccccc1.Cl` [Example 9, (S)-N-[2-(3,4-Dichlorophenyl)-4-[4-(3-pyridyl)piperidino]butyl]-N-methylbenzamide hydrochloride], at human NK2 receptor (read-out: Ki (Test A)), the inhibitory constant (Ki) was found to be 2 nM. Also, the Kb at guinea pig trachea (setting [2]) was 2.51 nM. Further, in the assay on NK2 receptor, the “number fully protected/total number tested (Test C)” value is recorded as 5/6 and the “percent protection (Test C)” value turned out to be 90%.
For the compound `Cc1nnc(C2CCN(CCC(CN(C)C(=O)c3ccccc3)c3ccc(Cl)c(Cl)c3)CC2)o1` (centres unmarked) [Example 7, N-[2-(3,4-Dichlorophenyl)-4-[4-(5-methyl-1,3,4-oxadiazol-2-yl)piperidino]butyl]-N-methylbenzamide hydrochloride], on human NK2 receptor (read-out: Ki (Test A)), the inhibitory constant (Ki) was 21.1 nM. Also, the Kb on guinea pig trachea (setting [2]) is 79.4 nM.
On to `CN(CC(CCN1CC[C@H](c2ccccc2)[C@@H](O)C1)c1ccc(Cl)c(Cl)c1)C(=O)c1ccccc1` (relative stereo) [Example 10, N-[2-(3,4-Dichlorophenyl)-4-[(3R*,4R*)-3-hydroxy-4-phenylpiperidino]butyl-N-methylbenzamide hydrochloride], for which, at human NK2 receptor (read-out: Ki (Test A)), the inhibition constant (Ki) was 13 nM. Further, at guinea pig trachea (setting [2]), the Kb was 10 nM.
`CN(CC(CCN1CCC2(CC1)OC(=O)c1ccccc12)c1ccc(Cl)c(Cl)c1)C(=O)c1ccccc1` (centres unmarked) [Example 24, N-[2-(3,4-Dichlorophenyl)-4-(3-oxospiro[isobenzofuran-1(3H),4'-piperidin]-1'-yl)butyl]-N-methylbenzamide hydrochloride]: affinity on human NK2 receptor was put at a Ki of 3.5 nM. In addition, the Kb at guinea pig trachea (pKB (Test B)) is 6.31 nM.
Regarding `CN(CC(CCN1CCC(c2ccccc2O)CC1)c1ccc(Cl)c(Cl)c1)C(=O)c1ccccc1` (centres unmarked) [Example 6, N-[2-(3,4-Dichlorophenyl)-4-[4-(2-hydroxyphenyl)piperidino]butyl]-N-methylbenzamide hydrochloride], the Ki on human NK2 receptor (read-out: Ki (Test A)) was found to be 2.8 nM. Besides, at guinea pig trachea (setting [2]), the Kb is 3.16 nM.
As to `CC(=O)NC1(c2ccccc2)CCN(CC[C@H](CN(C)C(=O)c2ccccc2)c2ccc(Cl)c(Cl)c2)CC1` [SR 48968, N-[4-(4-acetylamino-4-phenylpiperidino)-2-(3,4-dichlorophenyl)butyl]-N-methylbenzamide, reference compound], the Ki in assay [1] is 0.5 nM.
Consider `CN(C[C@@H](CCN1CCC(c2ccc([S+](C)[O-])cc2)CC1)c1ccc(Cl)c(Cl)c1)C(=O)c1ccccc1.Cl` (stereo partly drawn) [Example 16, (S)-N-[2-(3,4-Dichlorophenyl)-4-[4-(4-methylsulfinylphenyl)piperidino]butyl]-N-methylbenzamide hydrochloride], for which the Ki on human NK2 receptor (read-out: Ki (Test A)) was determined as 0.6 nM. In addition, the Kb at guinea pig trachea (setting [2]) was 6.31 nM. Besides, in the assay on NK2 receptor, the “number fully protected/total number tested (Test C)” value is recorded as 5/6 and the “percent protection (Test C)” value was determined as 88%.
For the compound `COc1ccccc1C1CCN(CCC(CN(C)C(=O)c2ccccc2)c2ccc(Cl)c(Cl)c2)CC1` (centres unmarked) [Example 2, N-[2-(3,4-Dichlorophenyl)-4-[4-(2-methoxyphenyl)piperidino]butyl]-N-methylbenzamide hydrochloride], the Ki on human NK2 receptor (read-out: Ki (Test A)) worked out at 9 nM. Further, the Kb on guinea pig trachea (setting [2]) is 5.01 nM.
For the compound `CN(CC(CCN1CCC(c2ccccc2)CC1)c1ccc(Cl)c(Cl)c1)C(=O)c1ccccc1.Cl` (centres unmarked) [Example 1, N-[2-(3,4-Dichlorophenyl)-4-(4-phenylpiperidino)butyl]-N-methylbenzamide hydrochloride], at human NK2 receptor (in vitro screen Test A), the “NK2 antagonism in words, Test A” value was “potent NK2 antagonist”. The inhibition constant Ki at human NK2 receptor (read-out: Ki (Test A)) was determined as 2.6 nM. Further, the “NK2 antagonism in words, Test B” value on guinea pig trachea (functional assay Test B) is “potent NK2 antagonist”. Besides, on guinea pig trachea (setting [2]), the Kb was 10 nM and 6.31 nM. In addition, in the assay with NK2 receptor, the “number fully protected/total number tested (Test C)” value was 0/6 and the “percent protection (Test C)” value turned out to be 17%. In assay [1], the “biological activity of the benzamide in words” value was “lack of biological activity” and the Ki is above 100 nM.
Turning to `CN(C[C@@H](CCN1CCC(c2ccccc2[S+](C)[O-])CC1)c1ccc(Cl)c(Cl)c1)C(=O)c1ccccc1.Cl` (stereo partly drawn) [Example 14, (S)-N-[2-(3,4-Dichlorophenyl)-4-[4-(2-methylsulfinylphenyl)piperidino]butyl]-N-methylbenzamide hydrochloride], the Ki on human NK2 receptor (read-out: Ki (Test A)) came out at 0.3 nM. Also, on guinea pig trachea (setting [2]), the Kb was 0.316 nM. Moreover, in the assay on NK2 receptor, the “number fully protected/total number tested (Test C)” value is 8/8 and the “percent protection (Test C)” value worked out at 100%.
For `CC(C)Oc1cccc(CC(=O)N(C)CC(CCN2CCC(c3ccccc3)CC2)c2ccc(Cl)c(Cl)c2)c1` (centres unmarked) [N-[2-(3,4-dichlorophenyl)-4-(4-phenylpiperidino)butyl]-N-methyl-3-isopropoxyphenylacetamide], in the assay with neurokinin receptors, the “affinity for neurokinin receptors” value is “high affinity”.

The values are drawn from patent US5654299A, “Aryl substituted heterocycles” (Zeneca Limited, priority 1993, dated 1997).
